# According to US20240368123A1, “AROMATIC RING-CONTAINING BIOLOGICAL ANTAGONIST, AND PREPARATION METHOD THEREFOR AND USE THEREOF” (SHANGHAI HANSOH BIOMEDICAL CO., LTD., priority 2021, published 2024):
# What was measured:
# Type in all cases: in vitro ADME
# Settings in all cases: human liver microsomes, single point method
# [1] = target: T1, CYP450 enzyme subtype 1A2 (Homo sapiens, UniProt P05177); assay: CYP enzyme single point inhibition test, 1A2
# T1 construct: Human liver microsome incubation system was used; from tissue; host or cells: human liver microsomes
# T1 sequence (P05177 1-516): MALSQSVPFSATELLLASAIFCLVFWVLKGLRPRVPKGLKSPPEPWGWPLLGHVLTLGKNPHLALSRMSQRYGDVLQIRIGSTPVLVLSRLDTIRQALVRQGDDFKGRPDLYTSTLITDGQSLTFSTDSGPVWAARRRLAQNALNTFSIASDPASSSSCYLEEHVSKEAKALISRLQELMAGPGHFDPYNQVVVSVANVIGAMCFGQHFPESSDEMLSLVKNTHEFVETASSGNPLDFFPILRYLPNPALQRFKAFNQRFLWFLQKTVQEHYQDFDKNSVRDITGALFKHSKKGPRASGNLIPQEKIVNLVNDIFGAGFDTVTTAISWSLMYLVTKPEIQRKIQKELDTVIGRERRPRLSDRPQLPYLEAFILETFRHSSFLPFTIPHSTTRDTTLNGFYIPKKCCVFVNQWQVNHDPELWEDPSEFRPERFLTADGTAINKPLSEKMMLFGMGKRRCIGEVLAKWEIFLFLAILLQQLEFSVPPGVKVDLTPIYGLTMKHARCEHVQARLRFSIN
# Procedure: (§1) Human liver microsome incubation system was used, and the single point method was used to quickly predict the inhibition on CYP450 enzyme subtypes (1A2, 2C19, 2D6, 3A4-M, and 3A4-T) by compounds.
# (§2) For 2.5 mM NADPH, 4.165 mg of NADPH (reduced nicotinamide adenine dinucleotide phosphate) was weighed and 100 mM phosphate buffer was added to 2 mL. For 0.25 mg/mL microsomes, 50 μL of 20 mg/mL microsomes was added to 4 mL of 100 mM phosphate buffer and mixed evenly.
# (§3) The test example compound was weighed, diluted to 10 mM with DMSO, and then diluted to 100 μM with 100 mM phosphate buffer.
# (§4) • 1. 40 μL of liver microsomes, 10 μL of substrate, and 10 μL of test compound were added in a 96-well plate and the mixture was pre-incubated for 3 min. • 2. 40 μL of NADPH was added. • 3. At 20 min, 300 μL of acetonitrile stop solution containing internal standard was added. • 4. The mixture was centrifuged and the sample was loaded.
# [2] = target: T2, CYP450 enzyme subtype 3A4-M (Homo sapiens, UniProt P08684); assay: CYP enzyme single point inhibition test, 3A4-M
# T2 construct: Human liver microsome incubation system was used; from tissue; host or cells: human liver microsomes
# Procedure: as §1, §2, §3, §4
# [3] = target: T3, CYP450 enzyme subtype 2D6 (Homo sapiens, UniProt P10635); assay: CYP enzyme single point inhibition test, 2D6
# T3 construct: Human liver microsome incubation system was used; from tissue; host or cells: human liver microsomes
# Procedure: as §1, §2, §3, §4
# T3 sequence (P10635 whole entry): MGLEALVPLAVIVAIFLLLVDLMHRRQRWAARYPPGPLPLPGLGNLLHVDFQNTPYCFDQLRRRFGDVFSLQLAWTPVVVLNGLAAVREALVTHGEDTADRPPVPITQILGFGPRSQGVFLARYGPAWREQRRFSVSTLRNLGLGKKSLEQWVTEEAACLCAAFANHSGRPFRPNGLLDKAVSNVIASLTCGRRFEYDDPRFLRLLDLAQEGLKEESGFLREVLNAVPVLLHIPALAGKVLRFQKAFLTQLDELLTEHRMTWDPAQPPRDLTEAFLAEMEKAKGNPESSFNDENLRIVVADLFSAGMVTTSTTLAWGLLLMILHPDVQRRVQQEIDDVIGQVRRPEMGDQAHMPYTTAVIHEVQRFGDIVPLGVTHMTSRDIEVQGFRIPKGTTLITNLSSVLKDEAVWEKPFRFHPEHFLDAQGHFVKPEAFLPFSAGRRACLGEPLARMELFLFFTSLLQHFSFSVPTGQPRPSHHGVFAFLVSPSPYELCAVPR
# T2 sequence (P08684 whole entry): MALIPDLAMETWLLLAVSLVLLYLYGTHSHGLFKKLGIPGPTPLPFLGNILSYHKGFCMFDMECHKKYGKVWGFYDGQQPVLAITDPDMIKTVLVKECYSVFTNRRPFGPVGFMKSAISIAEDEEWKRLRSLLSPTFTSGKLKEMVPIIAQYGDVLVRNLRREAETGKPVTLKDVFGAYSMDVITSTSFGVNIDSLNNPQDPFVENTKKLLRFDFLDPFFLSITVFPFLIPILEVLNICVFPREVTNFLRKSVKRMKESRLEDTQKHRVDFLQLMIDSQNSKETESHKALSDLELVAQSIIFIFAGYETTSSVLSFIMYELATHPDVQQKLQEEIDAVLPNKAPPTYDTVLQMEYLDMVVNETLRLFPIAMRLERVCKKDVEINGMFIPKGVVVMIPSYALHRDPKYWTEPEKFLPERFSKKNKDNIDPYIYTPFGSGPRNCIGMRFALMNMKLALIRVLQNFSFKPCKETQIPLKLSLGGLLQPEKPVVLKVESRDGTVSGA
compound,measurement,setting,value
"CCCCC1=NC2(CCCC2)C(=O)N1Cc1ccc(-c2ccccc2S(=O)(=O)Nc2noc(C)c2Br)c(COCC)c1 [Example 46, 2-[4-[(2-butyl-4-oxo-1,3-diazaspiro[4.4]non-1-en-3-yl)methyl]-2-(ethoxymethyl)phenyl]-N-(4-bromo-5-methyl-isoxazol-3-yl)benzsulfamide]",IC50,[1],> 100 µM
same,IC50,[2],16.7 µM
same,IC50,[3],> 100 µM
